Data from EP1501797B1, “3-(SUBSTITUTED AMINO)-1H-INDOLE-2-CARBOXYLIC ACID ESTER AND 3-(SUBSTITUTED AMINO)-BENZO[B]THIOPHENE-2-CARBOXYLIC ACID ESTER DERIVATIVES AS INTERLEUKIN-4 GENE EXPRESSION INHIBITORS” (Aventis Pharmaceuticals Inc., priority 2002, dated 2003).
“And” between values parts separate entries of the source, which are not always exact repeats. Equal values may be shown once.

Columns and labels:
human IL-13 promoter = assay: IL-13 Luc assay in Jurkat cells (2.1IL-13 Luc); format: cell-based; settings: Jurkat cell line; concentration not given; 480 min
IFN-γ = assay: Human primary Th2 cells, anti-CD3/anti-CD28 activated, IFN-γ ELISA; format: cell-based
Procedure: Briefly, CD4^+CD45RA^+ T cells, isolated from donor peripheral blood mononuclear cells of healthy donors, are educated in the presence of anti-CD3/CD28 antibodies and various growth factors to obtain either a Thl-like or Th2-like phenotypes as determined by the known cytokine profiles of these two cell types.
Peripheral blood mononuclear cells (PBMC) are prepared from human blood by Ficoll-Hypacque (Pharmacia). The cells are washed two times in Hanks balanced salt solution (HBSS) and counted.
Naive T cells (CD4^+/CD45RA ) are prepared by negative selection method using following antibodies and Dynabeads: anti-CD8, anti-HLA-DR, (where HLA means human leucocyte antigen) anti-CD14, anti-CD16, anti-CD19, anti-CD45RO antibodies (all from R&D Systems, 1-2 µg/ml) are added to the cells, and the cells are kept on ice for 30 min. The cells are washed two times in HBSS, and goat anti- mouse Ig-beads, (bead:target ratio, 5:1) are added. The cells and beads are slowly rotated at 4°C for 20 min. (following the protocol supplied from Dynal). The supernatant is removed and fresh goat anti-mouse Ig-beads are added to the supernatant, which is slowly rotated at 4°C for 20 min. The cells are counted and phenotypically characterized by flow cytometric analysis.
CD4^+/CD45RA^+ cells at a density of 10^6/ml in RPMI, is prepared and added to RPMI medium containing 10% Hyclone serum/ glutamine and 1-2 µg/ml anti-CD28 Ab. The cells are split in two aliquots. For Th1 cells: anti-IL-4 Ab (1-2 µg/ml), IFN-γ (1 µg/ml, or 5000 units/ml) are added to the wells. For Th2 cells: IL-4 (100-200 ng/ml), anti-IFN-γ neutralizing Ab (1-2 µg/ml), anti-IL-12 neutralizing Ab (1-2 µg/ml) are added into the wells. […] The cells are transferred to fresh wells and grown in 200 units/ml IL-2 for 2 weeks by feeding them every other day with IL-2 containing medium and splitting the cultures 1:2 or 1:3 as needed. The degree of polarization is determined by intracellular staining of cells with anti-IFN-γ and anti-IL-4 antibodies from Pharmingen, and using flow cytometry from Becton Dickinson (BD), according to manufacturers description. The cells are stimulated with PHA and alloantigens at day 14 and 28 as described below. Eight days after the second allostimulation the cells can be used for compound screening or frozen for future use. For compound testing, large quantities of Th1 and Th2 cells derived from a given donor (NYTh1 and NYTh2) were expanded and frozen as aliquots in liquid nitrogen. The cells are thawed and cultured as and when needed. The thawed cells are stimulated with alloantigen/PHA combination. The cells are used for compound screening after 8-10 days in culture.
Re-stimulation by allogeneic cells: Human PBMCs, to be used as alloantigens, are isolated from freshly drawn blood by Ficoll separation. […] Cells are counted and diluted to a final concentration of 2 x 10^6/ml in medium containing 10 µg/ml PHA and 200 units/ml IL-2.
Ninetysix well Falcon tissue culture plates (Fisher Scientific) are coated with 100 microliters per well of 10 µg/ml anti-CD3 (PharMingen) antibody in phosphate buffered saline (PBS) and stored at 4°C one day before the experiment.
On the day of assay, anti-CD3 antibody coated plates are washed with PBS once to remove all soluble anti-CD3 antibody. […] All compounds and controls are assayed in triplicates.

IgG1 Anti-DNP Antibody = assay: In vivo model of humoral immunity in mice (DNP-KLH), IgG1 anti-DNP antibody
Procedure: Female Balb/c mice, each weighing approximately 20 to 25 grams each, aged 5 to 8 weeks are used. Each experiment uses 30 mice.
The antigen for immunization is 2,4-dinitrophenyl (DNP) or 2,4,6-trinitrophenyl (TNP) conjugated to keyhole limpet haemocyanin (KLH). The antigen (100 µg/mouse) is adsorbed to an adjuvant (colloidal aluminum hydroxide) and given i.p. to animal in a total volume of 0.2-0.3 ml.
Animals are randomly divided into 5 groups of 6 mice each. Group 1 is a positive control group, Groups 2, 3, and 4 are test compound groups, and Group 5 is a vehicle control group. Compounds may be given by i.n., i.p., p.o., s.c., i.m. or i.v. administration. […] On day 8 after the immunization, mice are bled by cardiac puncture under anesthesia (isoflurane), and the serum samples are stored at -20°C until required for antibody analysis. The anesthetized animals are euthanized with overdosage of sodium pentobarbital at the end of experiment. Statistical analysis of the data are performed using ANOVA.
Mice are immunized with a hapten carrier conjugate, DNP-KLH, and anti-DNP antibody levels are determined in a isotype specific manner as described above. […]

O=C(O)c1[nH]c2ccccc2c1Nc1ccncc1 [Example 28, 3-(4-Pyridinylamino)-1H-indole-2-carboxylic acid]
2.1-IL-13 - Luc (% of control) (human IL-13 promoter): 50 ± 12 % of control
activity at 0.01 µM (IFN-γ; Homo sapiens, 0.01 µM, 48 hr, read-out: IFN-γ (% control) mean): 96.9%
activity at 0.03 µM (IFN-γ; Homo sapiens, 0.03 µM, 48 hr, read-out: IFN-γ (% control) mean): 91.6%
activity at 0.1 µM (IFN-γ; Homo sapiens, 0.1 µM, 48 hr, read-out: IFN-γ (% control) mean): 91.8%
activity at 0.3 µM (IFN-γ; Homo sapiens, 0.3 µM, 48 hr, read-out: IFN-γ (% control) mean): 92.1%
activity at 1 µM (IFN-γ; Homo sapiens, 1 µM, 48 hr, read-out: IFN-γ (% control) mean): 89.2%
activity at 3 µM (IFN-γ; Homo sapiens, 3 µM, 48 hr, read-out: IFN-γ (% control) mean): 83.5%
activity at 10 µM (IFN-γ; Homo sapiens, 10 µM, 48 hr, read-out: IFN-γ (% control) mean): 75%
IC50 (IFN-γ; Human primary Th2 cells, combined data from 10 different experiments): > 10 µM
IgG1 Anti-DNP Antibody Titer (IgG1 Anti-DNP Antibody; individual animals 1-6, dose not stated): 72.42 and 185.22 and 19.83 and 40.19 and 83.11 and 37.83
IgG1 Anti-DNP Antibody Titer Mean+/-SE (IgG1 Anti-DNP Antibody; vehicle 167.69 +/-18.19, dose not stated): 73.10 +/-24.38
IgG1 Anti-DNP Antibody Titer Inhibition (IgG1 Anti-DNP Antibody; versus vehicle): 56.5%
